Data: patent US10125118B2, “Heteroaryl compounds and their use as therapeutic drugs” (Dong-A Socio Holdings Co., Ltd., priority 2015, dated 2018)

Assays:
[1] = target: human c-MER catalytic domain (Homo sapiens (Human), UniProt Q12866); test: LanthaScreen TR-FRET kinase assay, c-MER; conditions: read-out: Mer TK inhibition (IC50); Biochemical IC50, TR-FRET, 10 uM ATP
[2] = test system: CD8-MerTK in Ba/F3-CDM cells; test: In cell MER kinase assay, Ba/F3-CDM cell proliferation without IL-3 (Celltiter-Glo); assay type: cell-based, murine; conditions: 48 hours compound treatment, read-out: Cell growth inhibition (GI50)
Procedure: To establish an in cell kinase assay for MerTK kinase, the IL-3 dependent Ba/F3 cells of murine lymphoid origin was transfected with CD8-MerTK. […] For a routine cellular assay, Ba/F3-CDM cells were seeded at 2,000 cells per well in 384-well cell culture plate containing DMEM/10% FBS culture media and incubated for 24 hours before addition of compounds pre-diluted in culture media. Following compound treatment, cells were further incubated for 48 hours and the proliferation was measured. To discriminate a Ba/F3 growth inhibition by a specific inhibition of MerTK kinase following compound treatment vs growth inhibition due to a non-specific unintended cytotoxicity of compounds, we routinely carried out control sets of Ba/F3 cells in parallel that grown in IL3-supplemented growth media. In the presence of IL-3, the proliferation of Ba/F3 is no longer dependent on the MerTK activity. Cell growth and proliferation was measured with Celltiter-Glo™ system (Promega, USA) according to the manufacturer's instruction. The half-maximal growth inhibitory concentration (GI50) value was calculated with Prism6.0 software (GraphPad, USA).

Sequence of human c-MER catalytic domain (Q12866 587-858): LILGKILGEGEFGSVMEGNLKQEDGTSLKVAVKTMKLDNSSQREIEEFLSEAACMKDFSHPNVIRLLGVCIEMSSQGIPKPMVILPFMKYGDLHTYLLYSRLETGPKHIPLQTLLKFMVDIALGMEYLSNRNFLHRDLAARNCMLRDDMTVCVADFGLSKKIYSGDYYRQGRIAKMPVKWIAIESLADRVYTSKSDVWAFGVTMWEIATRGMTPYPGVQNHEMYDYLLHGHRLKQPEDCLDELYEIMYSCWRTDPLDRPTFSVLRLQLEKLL

Compound: Cc1ccc(CO[C@H]2CCC[C@@H]2NC(=O)c2cc(-c3ccc(C(=O)NC4CCN(C)CC4)cc3)cnc2N)cc1C [Example 318, 2-amino-N-((1S,2S)-2-((3,4-dimethylbenzyl)oxy)cyclopentyl)-5-(4-((1-methylpiperidin-4-yl)carbamoyl)phenyl)nicotinamide]
- IC50 [1]: < 10 nM
- GI50 [2]: 500 to 1000 nM

Compound: CN1CCN(C2(c3ccc(-c4ccc(CO[C@H]5CCC[C@@H]5NC(=O)c5cc(-c6ccc(F)nc6)cnc5N)cc4)cc3)CC2)CC1 [Example 224, 6-amino-6′-fluoro-N-((1S,2S)-2-((4′-(1-(4-methylpiperazin-1-yl)cyclopropyl)-[1,1′-biphenyl]-4-yl)methoxy)cyclopentyl)-[3,3′-bipyridine]-5-carboxamide]
- IC50 [1]: < 10 nM
- GI50 [2]: 100 to 500 nM

Compound: CN1CCN(Cc2ccc(-c3ccc(CO[C@H]4CCC[C@@H]4NC(=O)c4cc(-c5ccc(N6CCOCC6)cc5)cnc4N)cc3)cc2)CC1 [Example 381, 2-amino-N-((1S,2S)-2-((4′-((4-methylpiperazin-1-yl)methyl)-[1,1′-biphenyl]-4-yl)methoxy)cyclopentyl)-5-(4-morpholinophenyl)nicotinamide]
- IC50 [1]: < 10 nM
- GI50 [2]: < 100 nM

Compound: CN1CCN(C(C)(C)c2ccc(-c3ccc(CO[C@H]4COC[C@@H]4NC(=O)c4cc(-c5cnn(C)c5)cnc4N)cc3)cc2)CC1 [Example 450, 2-amino-5-(1-methyl-1H-pyrazol-4-yl)-N-((3S,4R)-4-((4′-(2-(4-methylpiperazin-1-yl)propan-2-yl)-[1,1′-biphenyl]-4-yl)methoxy)tetrahydrofuran-3-yl)nicotinamide]
- IC50 [1]: < 10 nM
- GI50 [2]: < 100 nM

Compound: Cn1cc(-c2cnc(N)c(C(=O)N[C@H]3COC[C@@H]3OCc3ccc(-c4ccc(CN5CCN(CCO)CC5)cc4)cc3)c2)cn1 [Example 451, 2-amino-N-((3S,4R)-4-((4′-((4-(2-hydroxyethyl)piperazin-1-yl)methyl)-[1,1′-biphenyl]-4-yl)methoxy)tetrahydrofuran-3-yl)-5-(1-methyl-1H-pyrazol-4-yl)nicotinamide]
- IC50 [1]: < 10 nM
- GI50 [2]: < 100 nM

Compound: CN1CCN(Cc2ccc(-c3ccc(CO[C@H]4CCC[C@@H]4NC(=O)c4cc(-c5cnn(C)c5)cnc4N)cc3)c(Cl)c2)CC1 [Example 202, 2-amino-N-((1S,2S)-2-((2′-chloro-4′-((4-methylpiperazin-1-yl)-methyl)-[1,1′-biphenyl]-4-yl)methoxy)cyclopentyl)-5-(1-methyl-1H-pyrazol-4-yl)-nicotinamide]
- IC50 [1]: < 10 nM
- GI50 [2]: 100 to 500 nM

Compound: Cn1cc(-c2cnc(N)c(C(=O)N[C@H]3CCC[C@@H]3OCc3ccc(-c4ccc(CN5CCN(CCO)CC5)cc4)cc3)c2)cn1 [Example 181, 2-amino-N-((1S,2S)-2-((4′-((4-(2-hydroxyethyl)piperazin-1-yl)-methyl)-[1,1′-biphenyl]-4-yl)methoxy)cyclopentyl)-5-(1-methyl-1H-pyrazol-4-yl)-nicotinamide]
- IC50 [1]: < 10 nM
- GI50 [2]: < 100 nM

Compound: CN1CCN(Cc2ccc(-c3ccc(CO[C@H]4CCC[C@@H]4NC(=O)c4cc(-c5ccc(Cl)c(F)c5)cnc4N)cc3)cc2)CC1 [Example 373, 2-amino-5-(4-chloro-3-fluorophenyl)-N-((1S,2S)-2-((4′-((4-methylpiperazin-1-yl)methyl)-[1,1′-biphenyl]-4-yl)methoxy)cyclopentyl)nicotinamide]
- GI50 [2]: 100 to 500 nM

Compound: CN1CCN(Cc2ccc(-c3ccc(CO[C@H]4CCCC[C@@H]4NC(=O)c4cc(-c5cnn(C)c5)cnc4N)cc3)cc2)CC1 [Example 166, 2-amino-5-(1-methyl-1H-pyrazol-4-yl)-N-((1S,2S)-2-((4′-((4-methylpiperazin-1-yl)methyl)-[1,1′-biphenyl]-4-yl)methoxy)cyclohexyl)nicotinamide]
- IC50 [1]: > 1000 nM

Compound: C[C@@H](CNC(=O)c1cc(-c2cnn(C)c2)cnc1N)OCc1ccccc1 [Example 96, (S)-2-amino-N-(2-(benzyloxy)propyl)-5-(1-methyl-1H-pyrazol-4-yl)nicotinamide]
- IC50 [1]: > 1000 nM

Compound: Nc1ncc(-c2ccc(Oc3ccccc3)cc2)cc1C(=O)N[C@H]1CCC[C@@H]1OCc1ccccc1 [Example 267, 2-amino-N-((1S,2S)-2-(benzyloxy)cyclopentyl)-5-(4-phenoxyphenyl)nicotinamide]
- IC50 [1]: > 1000 nM

Compound: COc1ccc(CO[C@@H]2CCC[C@H]2NC(=O)c2cc(-c3cnn(C)c3)cnc2N)cc1 [Example 36, 2-amino-N-((1R,2R)-2-((4-methoxybenzyl)oxy)cyclopentyl)-5-(1-methyl-1H-pyrazol-4-yl)nicotinamide]
- IC50 [1]: > 1000 nM

Compound: CC(C)[C@H](COCc1ccccc1)NC(=O)c1cc(-c2cnn(C)c2)cnc1N [Example 110, (R)-2-amino-N-(1-(benzyloxy)-3-methylbutan-2-yl)-5-(1-methyl-1H-pyrazol-4-yl)nicotinamide]
- IC50 [1]: > 1000 nM

Compound: CC[C@H](COCc1ccccc1)NC(=O)c1cc(-c2cnn(C)c2)cnc1N [Example 108, (R)-2-amino-N-(1-(benzyloxy)butan-2-yl)-5-(1-methyl-1H-pyrazol-4-yl)nicotinamide]
- IC50 [1]: > 1000 nM

Compound: COc1cccc(COC[C@@H](C)NC(=O)c2cc(-c3cnn(C)c3)cnc2N)c1 [Example 106, (R)-2-amino-N-(1-((3-methoxybenzyl)oxy)propan-2-yl)-5-(1-methyl-1H-pyrazol-4-yl)nicotinamide]
- IC50 [1]: > 1000 nM

Compound: Cn1cc(-c2cnc(N)c(C(=O)N[C@@H]3[C@@H](COc4ccccc4)CCC3(F)F)c2)cn1 (relative stereo) [Example 79, 2-amino-N-(trans-2,2-difluoro-5-(phenoxymethyl)cyclopentyl)-5-(1-methyl-1H-pyrazol-4-yl)nicotinamide]
- IC50 [1]: > 1000 nM

Compound: CN1CCN(Cc2ccc(-c3ccc(CO[C@H]4CCC[C@@H]4NC(=O)c4cccnc4N)cc3)cc2C(F)(F)F)CC1 [Example 207, 2-amino-N-((1S,2S)-2-((4′-((4-methylpiperazin-1-yl)methyl)-3′-(trifluoromethyl)-[1,1′-biphenyl]-4-yl)methoxy)cyclopentyl)nicotinamide]
- IC50 [1]: < 10 nM

Compound: Cc1ccc(CO[C@H]2CCC[C@@H]2NC(=O)c2cc(-c3ccc(C(=O)N4CCC(N5CCCC5)CC4)c(C)c3)cnc2N)cc1C [Example 330]
- IC50 [1]: < 10 nM

Compound: COC(=O)[C@@H](NC(=O)c1cc(-c2cnn(C)c2)cnc1N)[C@@H](C)OCc1ccccc1 [Example 121, methyl N-(2-amino-5-(1-methyl-1H-pyrazol-4-yl)nicotinoyl)-O-benzyl-L-threoninate]
- IC50 [1]: > 1000 nM

Compound: Cn1cc(-c2cnc(N)c(C(=O)N[C@H]3CCC[C@@H]3O)c2)cn1 [Example 69, 2-amino-N-((1S,2S)-2-hydroxycyclopentyl)-5-(1-methyl-1H-pyrazol-4-yl)nicotinamide]
- IC50 [1]: > 1000 nM

Compound: CCCNC(=O)[C@@H](NC(=O)c1cc(-c2cnn(C)c2)cnc1N)[C@@H](C)OCc1ccccc1 [Example 123, 2-amino-N-((2S,3R)-3-(benzyloxy)-1-oxo-1-(propylamino)butan-2-yl)-5-(1-methyl-1H-pyrazol-4-yl)nicotinamide]
- IC50 [1]: > 1000 nM

Compound: C[C@@H](COCc1ccccc1)NC(=O)c1cc(-c2cnn(C)c2)cnc1N [Example 97, (S)-2-amino-N-(1-(benzyloxy)propan-2-yl)-5-(1-methyl-1H-pyrazol-4-yl)nicotinamide]
- IC50 [1]: > 1000 nM
